In this assay the target is T1, KRAS G12C 1-169, his-tagged protein, GDP-loaded (Homo sapiens, UniProt P01116, G12C).
T1 construct: KRAS G12C 1-169, his-tagged protein, GDP-loaded
The experiment in a line: Covalent binding (% modification) to KRAS G12C by mass spectrometry. Further: test concentration or dose not given here.

[1] abbreviates: covalent binding to KRAS G12C after a three minute incubation period.
[2] abbreviates: covalent binding to KRAS G12C after a ten minute incubation period.

With `C=CC(=O)N1C[C@H](C)N(c2nc(OCCCN(C)C)nc3c(F)c(-c4c(O)cccc4F)c(Cl)cc23)C[C@H]1C` [Compound 172, 1-((2R,5S)-4-(6-chloro-2-(3-(dimethylamino)propoxy)-8-fluoro-7-(2-fluoro-6-hydroxyphenyl)quinazolin-4-yl)-2,5-dimethyl-piperazin-1-yl) prop-2-en-1-one], the Binding % entry under setting [1] is listed as “+++ (+++ indicates binding activity greater than 90%)”.
In the case of `CC#CC(=O)N1C[C@H](C)N(c2nc(N3CC(N(C)C)C3)nc3c(F)c(-c4c(O)cccc4F)c(Cl)cc23)C[C@H]1C` [Compound 114, 1-((2R,5S)-4-(6-chloro-2-(3-(dimethylamino)azetidin-1-yl)-8-fluoro-7-(2-fluoro-6-hydroxyphenyl)quinazolin-4-yl)-2,5-dimethyl-piperazin-1-yl) but-2-yn-1-one], under “% modification at 10 min (footnote †)”, the Binding % entry was “+ (+ indicates binding activity greater than 0% and up to 50%)”.
Turning to `C=CC(=O)N1C[C@H](C)N(c2nc(N3CC(N(C)CC)C3)nc3c(F)c(-c4c(O)cccc4F)c(Cl)cc23)C[C@H]1C` [Compound 102, 1-((2R,5S)-4-(6-chloro-2-(3-(ethyl(methyl)amino)azetidin-1-yl)-8-fluoro-7-(2-fluoro-6-hydroxyphenyl)quinazolin-4-yl)-2,5-dimethyl-piperazin-1-yl) prop-2-en-1-one], the Binding % result under setting [1] is listed as “++ (++ indicates binding activity from 50 to 90%)”.
On the same count and under the same terms, then `C#CCN(C)C1CN(c2nc(N3C[C@@H](C)N(C(=O)C=C)C[C@@H]3C)c3cc(Cl)c(-c4c(C)ccc5cn[nH]c45)c(F)c3n2)C1` [Compound 148, 1-((2R,5S)-4-(6-chloro-8-fluoro-2-(3-(methyl (prop-2-yn-1-yl)amino)azetidin-1-yl)-7-(6-methyl-1H-indazol-7-yl)quinazolin-4-yl)-2,5-dimethyl-piperazin-1-yl) prop-2-en-1-one], with “++ (++ indicates binding activity from 50 to 90%)”.
In the case of `C=CC(=O)N1[C@H](C)CN(c2nc(NC3CCN(C4CC4)CC3)nc3c(F)c(-c4c(C)ccc5[nH]ncc45)c(Cl)cc23)C[C@@H]1C` [Compound 33, 1-((2R,6S)-4-(6-chloro-2-((1-cyclopropyl-piperidin-4-yl)amino)-8-fluoro-7-(5-methyl-1H-indazol-4-yl)quinazolin-4-yl)-2,6-dimethyl-piperazin-1-yl) prop-2-en-1-one], the Binding % entry under setting [2] is on record as “++ (++ indicates binding activity from 50 to 90%)”.
In the case of `[2H]C([2H])([2H])N(C1CN(c2nc(N3C[C@@H](C)N(C(=O)C=C)C[C@@H]3C)c3cc(Cl)c(-c4cc(O)cc5ccccc45)c(F)c3n2)C1)C([2H])([2H])[2H]` (atropisomer, axis not shown) [Compound 228], the Binding % entry under setting [1] is “+++ (+++ indicates binding activity greater than 90%)”.
Regarding `C=CC(=O)N1[C@H](C)CN(c2nc(N)nc3c(F)c(-c4cc(O)cc5ccccc45)c(Cl)cc23)C[C@@H]1C` [Compound 7, 1-((2S,6R)-4-(2-amino-6-chloro-8-fluoro-7-(3-hydroxynaphthalen-1-yl)quinazolin-4-yl)-2,6-dimethyl-piperazin-1-yl) prop-2-en-1-one], under setting [2], the Binding % entry is listed as “++ (++ indicates binding activity from 50 to 90%)”.
As to `C=CC(=O)N1C[C@H](C)N(c2nc(N3CC(N(CC)CC)C3)nc3c(F)c(-c4c(C)ccc5cn[nH]c45)c(Cl)cc23)C[C@H]1C` [Compound 117, 1-((2R,5S)-4-(6-chloro-2-(3-(diethylamino)azetidin-1-yl)-8-fluoro-7-(6-methyl-1H-indazol-7-yl)quinazolin-4-yl)-2,5-dimethyl-piperazin-1-yl) prop-2-en-1-one], the Binding % entry under setting [1] is “+ (+ indicates binding activity greater than 0% and up to 50%)”.

These data come from US10646488B2 (Araxes Pharma LLC, priority 2016, dated 2020).
